According to patent US20140220110A1, “REMOTE LOADING OF SPARINGLY WATER-SOLUBLE DRUGS INTO LIPOSOMES” (ZONEONE PHARMA, INC., priority 2013, published 2014):

Key:
[1] = unencapsulated drug; Yang et al 2011; cited from earlier work
[2] = Carfilzomib solubility as a function of DMSO content (optical density at 600 nm); assay type: physicochemical; conditions: 0.2 mg/mL carfilzomib
Method: Carfilzomib was added from a stock 10 mg/mL solution in DMSO to 1 mL of a citric acid/DMSO mixture so that the composition of DMSO was 2%, 25%, 50%, 75% and 100%. The final drug concentration was 0.2 mg/mL. The solutions were prepared and measured for optical density at 600 nm. The optical density at 600 nm is a good measure of how turbid or how much scattering material (such as drug precipitates) are in a solution, generally, the more precipitates the higher the absorbance. From FIG. 8 is apparent that at DMSO concentrations below 50% vol/vol (25° C.) and 25% vol/vol (65° C.) the drug remains in a precipitated form. Only when the concentration of DMSO is increased does it become effectively solubilized at this concentration of 0.2 mg/mL.

[3] = Reverse gradient-directed drug release from liposomes; assay type: physicochemical; conditions: for % Carfilzomib Released: 65 C 30 min
Method: Liposomes were loaded with carfilzomib as described in Example 1 and were purified into deionized water. The sample was divided into two aliquots. To the first aliquot, concentrated Hepes pH 7.4 and NaCl was added so that the final concentration was 5 mM Hepes, 145 mM NaCl (HBS). To the second aliquot, concentrated ammonium sulfate was added so that the final concentration was 250 mM. No obvious physical changes were initially observed. The samples were then heated at 65° C. for 30 min. The samples were transferred to clean eppendorf tubes and centrifuged for 10,000 rpm for 5 min after which the supernatants and precipitates were separated and tested for carfilzomib content by HPLC assay. Released drug precipitated, liposome encapsulated drug remained in the supernatant. The % carfilzomib released was calculated by […]

[4] = Liposome size by dynamic light scattering; assay type: physicochemical; conditions: liposomes loaded with carfilzomib, before lyophilizing
Method: (§1) The lipid concentration is determined by measuring the cholesterol by HPLC using an Agilent 1100 HPLC with and Agilent Zorbax 5 um, […], Eclipse XDB-C8 column and a mobile phase of A=0.1% TFA, B=0.1% TFA/MeOH with an isocratic elution of 99% B. The flow rate is 1.0 mL/min, column temperature is 50° C., 10 μL injection and detection by absorbance at 205 nm. The retention time of cholesterol is 4.5 min. The liposome size is measured by dynamic light scattering.
See Example 1, Carfilzomib liposome entrapment by remote loading for details on how the liposomes were made, purified and characterized.

[5] = Remote loading of carfilzomib precipitate into liposomes (drug and lipid by HPLC after purification); assay type: physicochemical; conditions: for efficiency of remote loading: 100 g drug/mol HSPC
Method: Ammonium sulfate solution was prepared by dissolving ammonium sulfate solid to a final concentration of 250 mM (500 mequivilents of anion/L) no pH adjustment was made to yield a final pH of 5.6. Sodium sulfate solution (250 mM) was prepared by adding 0.35 g sodium sulfate to 10 mL deionized water.
The liposomes were formed by extrusion. Lipids were dissolved in ethanol at a concentration of 500 mM HSPC (591 mg/mL total lipid) at 65° C. and the 9 volumes of the trapping agent solution heated to 65° C. was added to the ethanol/lipid solution also at 65° C. The mixture was vortexed and transferred to a 10 mL thermostatically controlled (65° C.) Lipex Extruder. The liposomes were formed by extruding 10 times through polycarbonate membranes having 0.1 um pores. After extrusion the liposomes were cooled on ice. The transmembrane electrochemical gradient was formed by purification of the liposomes by dialysis in dialysis tubing having a molecular weight cut off of 12,000-14,000. The samples are dialyzed against 5 mM HEPES, 10% sucrose pH 6.5 (stirring at 4° C.) at volume that is 100 fold greater than the sample volume. The dialysate was changed after 2 h then 4 more times after 12 h each. The conductivity of the liposome solution was measured and was indistinguishable from the dialysis medium ˜40 μS/cm.
as §1
Carfilzomib (Selleck Chemicals) was dissolved in DMSO at a concentration of 10 mg/mL. The carfilzomib was introduced to the liposomes at a carfilzomib to HSPC ratio of 100 g drug/mol HSPC (drug to total lipid ratio (wt/wt) of 0.12). The liposomes were diluted with 50 mM citrate, 10% sucrose pH 4.0 to increase the volume to a point where after addition of the drug the final DMSO concentration is 2%. The carfilzomib/DMSO was added to the diluted liposomes, which were mixed at room temperature then transferred to a 65° C. bath and swirled every 30 s for the first 3 min and then swirled every 5 min over a total heating time of 30 min. All samples were very cloudy when the drug was added and all became clear (same as liposomes with no drug added) after 15 min. After heating for 30 min all samples were placed on ice for 15 min. The loaded liposomes were vortexed and 100 μL of sample was kept as the “before column” and the rest transferred to microcentrifuge tubes and spun at 10,000 RPM for 5 min. The supernatants were purified on a Sephadex G25 column collected and analyzed by HPLC. The HPLC analysis of carfilzomib was performed on the same system as described for analysis of cholesterol. The mobile phase consists of A=0.1% TFA, B=0.1% TFA/MeOH with a gradient elution starting at 50% B and increasing to 83% B in 13 min with 7 min equilibration back to 50% B. The flow rate is 1.0 mL/min, column temperature is 30 C, 10 μl injection and detection by absorbance at 205 nm. The retention time of carfilzomib is 12.2 min. The lipid concentration is determined by analysis of the cholesterol by HPLC.

[6] = 250 mM ammonium sulfate liposomes, drug added at 100 g drug/mol HSPC

- DMSO concentration below which the drug remains in a precipitated form ([2]; 25 C): 50 % vol/vol
- DMSO required to completely dissolve the drug ([2]; 65 C): > 25 % vol/vol
- drug released with reverse gradient over control with no reverse gradient [3]: 6.5 fold
- % Carfilzomib Released ([3]; 250 mM ammonium sulfate outside (reverse gradient)): 68.5 ± 1.82%
- % Carfilzomib Released ([3]; Hepes buffered saline (no reverse gradient)): 10.6 ± 0.28%
- PDI ([4]; (NH4)2SO4, drug added quickly): 0.062
- Z-ave ([4]; (NH4)2SO4, drug added quickly): 108 nm
- PDI ([4]; (NH4)2SO4, drug added slowly): 0.035
- Z-ave ([4]; (NH4)2SO4, drug added slowly): 109.2 nm
- PDI ([4]; Mellitic Acid): 0.08
- Z-ave ([4]; Mellitic Acid): 105.5 nm
- PDI ([4]; Napthelenedisulfonic acid): 0.039
- Z-ave ([4]; Napthelenedisulfonic acid): 111.9 nm
- efficiency of remote loading ([5]; 10 mg/mL DMSO solution added in 5 increments over 1 min while vortexing): 96.3%±1.09%
- final drug to lipid ratio [5, 6]: 95.26±3.47 g drug/mol of HSPC
- loading efficiency [5, 6]: 95.26±3.47%
- final drug load ([5]; control liposomes with 250 mM sodium sulfate (no gradient), drug added at 100 g drug/mol HSPC): 33.28±0.79 g drug/mol of HSPC
- loading capacity of remote loaded liposomes over sodium sulfate liposomes ([5]; input 100 g drug/mol HSPC): > 3 fold
- efficiency of remote loading ([5]; trapping agent ammonium sulfate, 10 mg/mL DMSO solution added quickly): 97.0%±2.38%
SMILES: CC(C)C[C@H](NC(=O)[C@H](CCc1ccccc1)NC(=O)CN1CCOCC1)C(=O)N[C@@H](Cc1ccccc1)C(=O)N[C@@H](CC(C)C)C(=O)[C@@]1(C)CO1 [carfilzomib]
- t1/2 in the blood stream [1]: < 20 min
- degradation of released drug (HPLC chromatogram against starting material) ([3]; after loading and release by reverse gradient): no degradation of carfilzomib had taken place
